Read-outs that look alike come from different tables or passages of the source.
Test system: PnpA (His-6-PnpA; p-nitrophenol 4-monooxygenase, PnpM)
Test: spectrophotometric monooxygenase assay, Michaelis-Menten
Format: biochemical, Burkholderia sp. SJ98
Source text: spectrophotometric monooxygenase assay, Michaelis-Menten on PnpA (His-6-PnpA; p-nitrophenol 4-monooxygenase, PnpM)

Structure (SMILES) | Km [µM] | Km (fixed NADH, 0.02 mM FAD, 50 mM phosphate pH 7.4, PNP 12.5-250 µM) [µM]
NC(=O)C1=CN([C@@H]2O[C@H](COP(=O)(O)OP(=O)(O)OC[C@H]3O[C@@H](n4cnc5c(N)ncnc54)[C@H](O)[C@@H]3O)[C@@H](O)[C@H]2O)C=CC1 [NADH] | 96 ± 7.74 | 
O=[N+]([O-])c1ccc(O)cc1 [PNP, p-nitrophenol] |  | 35.4 ± 5.95
